Source: patent US20260001889A1, “COMPOSITIONS USEFUL FOR MODULATING SPLICING” (Skyhawk Therapeutics, Inc., priority 2022, published 2026)

tested on: ATXN3-HiBiT protein; assay: ATXN3 Total Protein Assay (Kelly-ATXN3-HiBiT luminescence); type: cell-based; settings: Kelly-ATXN3-HiBiT cells, 48 h after addition of compound
From the text: Example 36: ATXN3 Total Protein Assay
To monitor ATXN3 protein levels by luminescence, a Kelly-ATXN3-HiBiT cell line with homozygous knock-in of HiBiT at the C-terminus of the endogenous ATXN3 gene was used (knock-in of the HiBiT-tag coding sequence SEQ ID NO. 14: 5′[…]3′ into exon 11 of ATXN3-position 1114 of ATXN3 RefSeq NM_004993.6). Manipulations of the Kelly-ATXN3-HiBiT cell line that result in downregulation of the ATXN3-HiBiT protein (through modulation of ATXN3-HiBiT pre-mRNA splicing) can be followed by monitoring the luminescence signal of the HiBiT tag using the Nano Glo HiBiT Lytic Detection System (Promega, #N3050). Kelly-ATXN3-HiBiT cells were maintained in RPMI 1640 w/Glutamax (Gibco, #61870010), 10% FBS (Sigma Aldrich, #F8687), 1% Penicillin/Streptomycin (Gibco, #15140-122) at 37° C., 5% CO2. To assess HiBiT-luminescence signal upon compound treatment, 2000 Kelly-ATXN3-HiBiT cells were seeded per well in 384 plate format. Compounds were added 24 h after seeding. ATXN3-HiBiT-luminescence signal was read out 48 h after addition of the compound using the Nano Glo HiBiT Lytic Detection System (Promega, #N3050) according to the manufacturer's instructions. To control for cell viability, an identically prepared sister plate was read out with the CellTiter-Glo® 2.0 Assay (Promega, #G9243) according to the manufacturer's instructions. Fold changes of ATXN3-HiBiT-luminescence and of CellTiter-Glo viability signals were calculated relative to a DMSO control condition.

EC50 | Compound
0.01 to 100 nM | COCC[C@H](N)Cc1oc2c(NCc3cccs3)cc(Cl)nc2c1Br [Compound 147, 2-[(S)-2-amino-4-methoxybutyl]-3-bromo-5-chloro-7-thenylamino-1-oxa-4-azaindene]
501 to 5000 nM | N[C@@H](Cc1oc2c(NCc3cccs3)cc(Cl)nc2c1Br)CC1(F)CC1 [Compound 86, 2-[(S)-2-amino-3-(1-fluorocyclopropyl)propyl]-3-bromo-5-chloro-7-thenylamino-1-oxa-4-azaindene]
0.01 to 100 nM | [2H][C@](N)(COC)Cc1oc2c(NCc3cccs3)cc(Cl)nc2c1Cl [Compound 283, 2-[(R)-2-amino-3-methoxy(2-^2H)propyl]-3,5-dichloro-7-thenylamino-1-oxa-4-azaindene]
101 to 500 nM | [2H]C([2H])([2H])OCC[C@H](N)Cc1oc2c(NCc3cccs3)cc(Cl)nc2c1Br [Compound 267, 2-[(S)-2-amino-4-(^2H3)methoxybutyl]-3-bromo-5-chloro-7-thenylamino-1-oxa-4-azaindene]
101 to 500 nM | N[C@H](Cc1oc2c(NCc3cccs3)cc(Cl)nc2c1Br)CC1(F)CC1 [Compound 87, 2-[(R)-2-amino-3-(1-fluorocyclopropyl)propyl]-3-bromo-5-chloro-7-thenylamino-1-oxa-4-azaindene]
0.01 to 100 nM | Cc1c(C[C@H](N)CC2(F)CC2)oc2c(NCc3cccs3)cc(Cl)nc12 [Compound 69, 2-[(S)-2-amino-3-(1-fluorocyclopropyl)propyl]-5-chloro-3-methyl-7-thenylamino-1-oxa-4-azaindene]
0.01 to 100 nM | [2H]C([2H])(c1oc2c(NCc3cccs3)cc(Cl)nc2c1Br)[C@@H](N)CF [Compound 305, 2-[(R)-2-amino-3-fluoro(1,1-^2H2)propyl]-3-bromo-5-chloro-7-thenylamino-1-oxa-4-azaindene]
101 to 500 nM | Clc1cc(NCc2cccs2)c2occ(Br)c2n1 [Compound 279, (thenyl)(3-bromo-5-chloro-1-oxa-4-aza-7-indenyl)amine]
101 to 500 nM | C[C@H](N)C(F)(F)c1oc2c(NCc3nccs3)cc(Cl)nc2c1Br [Compound 223, 2-[(S)-2-amino-1,1-difluoropropyl]-3-bromo-5-chloro-7-{[(1,3-thiazol-2-yl)methyl]amino}-1-oxa-4-azaindene]
0.01 to 100 nM | CC(=O)NC[C@H](N)Cc1oc2c(NCc3cccs3)cc(Cl)nc2c1Br [Compound 219]
10000 to 40000 nM | COC1([C@H](N)Cc2oc3c(NCc4cccs4)cc(Cl)nc3c2Br)CC1 [Compound 144, 2-[(R)-2-amino-2-(1-methoxycyclopropyl)ethyl]-3-bromo-5-chloro-7-thenylamino-1-oxa-4-azaindene]
0.01 to 100 nM | [2H]C([2H])([2H])OC([2H])([2H])[C@H](N)Cc1oc2c(NCc3cccs3)cc(Cl)nc2c1C#C [Compound 301, 2-[(R)-2-amino-3-(^2H3)methoxy(3,3- ^2H2)propyl]-5-chloro-3-ethynyl-7-thenylamino-1-oxa-4-azaindene]
0.01 to 100 nM | [2H]C([2H])([2H])OC[C@H](N)Cc1oc2c(NC([2H])([2H])c3cccs3)cc(Cl)nc2c1Br [Compound 249, 2-[(R)-2-amino-3-(^2H3)methoxypropyl]-3-bromo-5-chloro-7-{[(2-thienyl)(^2H2)methyl]amino}-1-oxa-4-azaindene]
0.01 to 100 nM | [2H]C([2H])([2H])OCC[C@H](N)Cc1oc2c(NCc3cccs3)cc(Cl)nc2c1C#C [Compound 320, 2-[(S)-2-amino-4-(^2H3)methoxybutyl]-5-chloro-3-ethynyl-7-thenylamino-1-oxa-4-azaindene]
0.01 to 100 nM | [2H]C([2H])(c1oc2c(NCc3cccs3)cc(Cl)nc2c1Cl)[C@@H](N)CF [Compound 336, 2-[(R)-2-amino-3-fluoro(1,1-^2H2)propyl]-3,5-dichloro-7-thenylamino-1-oxa-4-azaindene]
5000 to 10000 nM | CC(O)c1oc2c(NCc3cccs3)cc(Cl)nc2c1Br (centres unmarked) [Compound 355, 1-(3-bromo-5-chloro-7-((thiophen-2-ylmethyl)amino)furo[3,2-b]pyridin-2-yl)ethan-1-ol]
0.01 to 100 nM | [2H]C([2H])(c1oc2c(NCc3cccs3)cc(Cl)nc2c1C#C)[C@@H](N)COC [Compound 330, 2-[(R)-2-amino-3-methoxy(1,1- ^2H2)propyl]-5-chloro-3-ethynyl-7-thenylamino-1-oxa-4-azaindene]
501 to 5000 nM | Cc1c(C[C@@H](N)CC2(F)CC2)oc2c(NCc3cccs3)cc(Cl)nc12 [Compound 68, 2-[(R)-2-amino-3-(1-fluorocyclopropyl)propyl]-5-chloro-3-methyl-7-thenylamino-1-oxa-4-azaindene]
0.01 to 100 nM | [2H]C([2H])(F)[C@H](N)Cc1oc2c(NCc3cccs3)cc(Cl)nc2c1Br [Compound 299, 2-[(R)-2-amino-3-fluoro(3,3-^2H2)propyl]-3-bromo-5-chloro-7-thenylamino-1-oxa-4-azaindene]
0.01 to 100 nM | N[C@@H](CCOC(F)(F)F)Cc1oc2c(NCc3cccs3)cc(Cl)nc2c1Br [Compound 146, 2-[(S)-2-amino-4-trifluoromethoxybutyl]-3-bromo-5-chloro-7-thenylamino-1-oxa-4-azaindene]
0.01 to 100 nM | [2H]C([2H])(OC(F)F)[C@H](N)Cc1oc2c(NCc3cccs3)cc(Cl)nc2c1Br [Compound 298, 2-[(R)-2-amino-3-difluoromethoxy(3,3- ^2H2)propyl]-3-bromo-5-chloro-7-thenylamino-1-oxa-4-azaindene]
0.01 to 100 nM | [2H]C([2H])(c1oc2c(NCc3cccs3)cc(Cl)nc2c1C#C)[C@@H](N)CF [Compound 335, 2-[(R)-2-amino-3-fluoro(1,1-^2H2)propyl]-5-chloro-3-ethynyl-7-thenylamino-1-oxa-4-azaindene]
501 to 5000 nM | C#Cc1c(C[C@@H](N)CC2(O)CC2)oc2c(NCc3cccs3)cc(Cl)nc12 [Compound 281, 1-[(2S)-2-amino-3-{5-chloro-3-ethynyl-7-[(thiophen-2-ylmethyl)amino]furo[3,2-b]pyridin-2-yl}propyl]cyclopropan-1-ol]
501 to 5000 nM | N#CC[C@H](N)Cc1oc2c(NCc3cccs3)cc(Cl)nc2c1Br [Compound 155, (S)-3-amino-4-(3-bromo-5-chloro-7-thenylamino-1-oxa-4-aza-2-indenyl)butyronitrile]
0.01 to 100 nM | C#Cc1c(C[C@@H](N)CO)oc2c(NCc3cccs3)cc(Cl)nc12 [Compound 248, (R)-2-amino-3-(5-chloro-3-ethynyl-7-thenylamino-1-oxa-4-aza-2-indenyl)-1-propanol]

Compound | EC50
[2H]C([2H])([2H])C(N)Cc1oc2c(NCc3cccs3)cc(Cl)nc2c1Br (centres unmarked) [Compound 230, 2-[2-amino(3,3,3-^2H3)propyl]-3-bromo-5-chloro-7-thenylamino-1-oxa-4-azaindene] | 0.01 to 100 nM
[2H]C([2H])(c1oc2c(NCc3cccs3)cc(Cl)nc2c1Cl)[C@H](C)N [Compound 293, 2-[(S)-2-amino(1,1-^2H2)propyl]-3,5-dichloro-7-thenylamino-1-oxa-4-azaindene] | 0.01 to 100 nM
[2H]C([2H])([2H])C(N)Cc1oc2c(NCc3cccs3)cc(Cl)nc2c1C#C (centres unmarked) [Compound 269, 2-[2-amino(3,3,3-^2H3)propyl]-5-chloro-3-ethynyl-7-thenylamino-1-oxa-4-azaindene] | 0.01 to 100 nM
[2H][C@@](C)(N)Cc1oc2c(NCc3cccs3)cc(Cl)nc2c1Br [Compound 229, 2-[(S)-2-amino(2-2H)propyl]-3-bromo-5-chloro-7-thenylamino-1-oxa-4-azaindene] | 0.01 to 100 nM
C[C@H](N)Cc1oc2c(NCc3ccc(F)cn3)cc(Cl)nc2c1Br [Compound 341, 2-[(S)-2-aminopropyl]-3-bromo-5-chloro-7-{[(5-fluoro-2-pyridyl)methyl]amino}-1-oxa-4-azaindene] | 5000 to 10000 nM
C[C@H](N)Cc1oc2c(NCc3ccc(C#N)cc3)cc(Cl)nc2c1Br [Compound 339, p-({2-[(S)-2-aminopropyl]-3-bromo-5-chloro-1-oxa-4-aza-7-indenylamino}methyl)benzonitrile] | 10000 to 40000 nM
C[C@H](N)Cc1oc2c(NCc3ccncc3F)cc(Cl)nc2c1Br [Compound 342, 2-[(S)-2-aminopropyl]-3-bromo-5-chloro-7-{[(3-fluoro-4-pyridyl)methyl]amino}-1-oxa-4-azaindene] | 101 to 500 nM
[2H][C@@](C)(N)Cc1oc2c(NCc3cccs3)cc(Cl)nc2c1C#C [Compound 268, 2-[(S)-2-amino(2-^2H)propyl]-5-chloro-3-ethynyl-7-thenylamino-1-oxa-4-azaindene] | 0.01 to 100 nM
[2H]C([2H])([2H])[C@@H](N)Cc1oc2c(NCc3cccs3)cc(Cl)nc2c1C#C [Compound 271, 2-[(R)-2-amino(3,3,3-^2H3)propyl]-5-chloro-3-ethynyl-7-thenylamino-1-oxa-4-azaindene] | 101 to 500 nM
[2H]C([2H])(c1oc2c(NCc3cccs3)cc(Cl)nc2c1C#C)[C@H](C)N [Compound 327, 2-[(S)-2-amino(1,1-^2H2)propyl]-5-chloro-3-ethynyl-7-thenylamino-1-oxa-4-azaindene] | 0.01 to 100 nM
